We go through 2 compounds from US8865163B2, “Pharmaceutical compositions and methods of treatment” (priority 2010, dated 2014).

Common to all, as to assay type: in vivo
A short description of assay [1]: Open field test, motor activity of mice given nicotine. The following applies: nicotine 0.3 mg/kg s.c. over 4 days. The source says: The effects of I) the combination of ultra-low doses of polyclonal rabbit antibodies to brain-specific protein S-100 (ULD anti-S100) and ultra-low doses of antibodies to cannabinoid receptor type 1 (ULD anti-CB1), each obtained by hyper-dilution of the initial matrix solution 100^12, 100^30, 100^200 times (mixture of centesimal homeopathic dilutions C12, C30, C200) (ULD anti-S100+ULD anti-CB1), ii) ULD anti-CB1 alone, and iii) ULD anti-S100 alone, on motor activity of mice were studied to evaluate their anti-nicotine properties.
40 white outbred male mice (22-25 g, 1.5 mo.) were used. 10 mice were intact. The rest of the mice were administered nicotine subcutaneously over 4 days at the dose of 0.3 mg/kg, Nicotine administration was preceded (1 hour prior) by intragastrical administration of either distilled water (control, 0.4 ml/mouse), or ULD anti-S100 (0.4 ml/mouse), or ULD anti-CB1 (0.4 ml/mouse), or ULD anti-S100+ULD anti-CB1 (0.4 ml/mouse). 30 minutes after the last administration of nicotine, an “open field” test was conducted. The animals were placed in the center of a TruScan photo-sensory installation (Coulbourn, USA), where the vertical and horizontal locomotor activity of the animals was automatically recorded in the course of two (2) minutes. The “open field” model makes it possible to evaluate the effect of the compounds on the locomotor activity of the animals (Gershenfield H. K., Neumann P. E., Mathis C., Crawley J. N., Li X., Paul S. M. Mapping quntative Trait Loci for Open-Field Behavior in Mice. Behavioral Genetics.—1997.—Vol. 27.—No 3.—p. 201-209, which is incorporated herein by reference in its entirety and for the purpose stated). The installation parameters: size 270×270×360 mm, divided into 64 squares, 2.5×2.5, with 25 mm openings situated in the platform floor, illumination of a 150 watt lamp.

Assay [2] can be described thus: Feed consumption and body mass growth of C57B1 mice on high calorie diet, 5 months. From the text: (§1) The test substance was in the form of an aqueous solution of ultra-low doses of polyclonal rabbit antibodies to human cannabinoid receptor type 1 (ULD anti-CB1), purified on antigen, obtained by hyper-dilution of the initial matrix solution 100^12, 100^30, 100^200 times (mixture of centesimal homeopathic dilutions C12, C30, and C200).
40 male mice of the C57B1 line were used in the study (weight at the beginning of the study: 13.5-15.5 g). 10 mice received the regular standard feed (standard diet); 30 mice received the standard feed with high calorie additives (high calories diet) and, simultaneously, either distilled water (control, 0.4 ml/mouse) or Subutramine (Meridia 10 mg capsules, Abbott GmbH, Germany) (10 mg/Kg) or ULD anti-CB1 (0.4 ml/mouse). All preparations were given intragastrically once a day in the course of 5 months. The mice consumption of feed was measured before test substances were introduced. The mice consumption of feed was also measured each week thereafter. The consumption of feed was evaluated as an average quantity of food (in grams), consumed by a mouse after 1 and 2 months of the study, and as an average quantity of feed per 10 g of mouse body mass.

Assay [3] can be described thus: Body mass growth of C57B1 mice on high (45%) fat diet, 2 months. The following applies: for Body mass (grams): high fat diet.
Text: as §1
33 male mice of the C57B1 line were used in the study (weight at the beginning of the study: 13.09±0.738 g). The mice received the modified diet with high (45%) fat content and simultaneously either distilled water (control, 0.2 ml/mouse) or Subutramine (10 mg/Kg) or ULD anti-CB1 (0.2 ml/mouse). All ULD anti-CB1 preparations were given intragastrically once a day in the course of 2 months. The mice weight was measured on Philips Cucina HR 239016 (Hungary) electronic scales until beginning to introduce the preparations (initially) and also each week after beginning to introduce them. The body mass growth of the mice was evaluated as a percentage of the initial weight.

With `CN1CCCC1c1cccnc1` (centres unmarked) [nicotine], in assay [1], the “decrease of immobility time in comparison with the intact animals” value is listed as 13.5%, the “increase of activity time in comparison with the intact animals” value was determined as 8.2%, the “increase of distance traveled in comparison with the intact animals” value is recorded as 5.1% and the “increase of quantity of openings investigated in comparison with the intact animals” value was found to be 78.2%. The “increase of study reaction time in comparison with the intact animals” value in assay [1] is 76.9%.

For `CC(C)CC(N(C)C)C1(c2ccc(Cl)cc2)CCC1` (centres unmarked) [Subutramine], the “Consumption of feed (g per 10 g of body mass) per day” value in assay [2] (average over 5 months, M±m) is reported as 1.28 ± 0.05 g per 10 g of body mass per da. For the same compound, in assay [2] (average over 5 months, M±m), the “Consumption of feed (g/mouse) per day” value stood at 2.75 ± 1.36 g/mouse per day. Besides, the “decrease of consumption of feed in reference to the control” value in assay [2] (intragastrically once a day, in a week) is listed as 19.3%. For the same compound, the “lowered body mass in comparison with the control group” value in assay [2] (last twentieth week) amounted to 51.5%. Besides, the “Body mass (grams)” value in assay [3] (week 0 (initial)) was 13.82 grams; in assay [3] (week 1) it was 13.45 grams; in assay [3] (week 2) it was 16.73 grams; in assay [3] (week 3), 19.82 grams; in assay [3] (week 4) it was 20.18 grams; in assay [3] (week 5), 20.91 grams. The “Body mass (grams)” value is 22.36 grams in assay [3] (week 6), 23.64 grams in assay [3] (week 7) and 22.91 grams in assay [3] (week 8). Further, the “Δ to initial (body mass growth, percentage of initial weight)” value is on record as −2.6% in assay [3] (week 1); 21.1% in assay [3] (week 2); 43.4% in assay [3] (week 3); 46.1% in assay [3] (week 4); 51.3% in assay [3] (week 5); 61.8% in assay [3] (week 6). The “Δ to initial (body mass growth, percentage of initial weight)” value in assay [3] (week 7) came out at 71.1%; in assay [3] (week 8) it was 65.8%.
